Data on eleven compounds can be found in patent US10683290B2, “Tricyclic compounds as anticancer agents” (BRISTOL-MYERS SQUIBB COMPANY, priority 2015, dated 2020).

SMILES strings stand for the structures. Some results are limits rather than exact numbers.

The target of this test is BRD4 (Homo sapiens, UniProt O60885). Kind of test: biochemical. Format: binding. Particulars: one of the FRET assays described; read-out: FRET BRD4 IC50.
On to `Cc1nnn(C)c1-c1ccc2c3ncc(S(C)(=O)=O)cc3n([C@H](c3ccccc3)C3CCOCC3)c2c1` [Example 26, 5-{3-Methanesulfonyl-5-[(S)-oxan-4-yl(phenyl)methyl]-5H-pyrido[3,2-b]indol-7-yl}-1,4-dimethyl-1H-1,2,3-triazole], for which the IC50 was less than 5 nM.

Regarding `[2H]C([2H])([2H])c1nnn(C)c1-c1cc2c(cc1F)c1ncc(C(C)(C)O)cc1n2C(c1ccccc1)C1(C)COC1` (single isomer, unassigned) [Example 65, 2-{8-fluoro-7-[4-(^2H3)methyl-1-methyl-1H-1,2,3-triazol-5-yl]-5-[(3-methyloxetan-3-yl)(phenyl)methyl]-5H-pyrido[3,2-b]indol-3-yl}propan-2-ol], the 50% inhibitory concentration (IC50) is less than 1500 nM.

Regarding `Cc1noc(C)c1-c1cc2c(cc1F)c1ncc(C(C)(C)O)cc1n2[C@H](c1ccccc1)C1CCOCC1` [Example 18, 2-[7-(dimethyl-1,2-oxazol-4-yl)-8-fluoro-5-[(S)-oxan-4-yl(phenyl)methyl]-5H-pyrido[3,2-b]indol-3-yl]propan-2-ol], the half-inhibitory concentration (IC50) is less than 5 nM.

As for `[2H]C([2H])([2H])c1nnn(C)c1-c1cc2c(cc1F)c1ncc(S(C)(=O)=O)cc1n2[C@H](c1ccccc1F)C1CCOCC1` [Example 28, 5-{8-Fluoro-5-[(S)-(2-fluorophenyl)(oxan-4-yl)methyl]-3-methanesulfonyl-5H-pyrido[3,2-b]indol-7-yl}-4-(^2H3)methyl-1-methyl-1H-1,2,3-triazole], the half-inhibitory concentration (IC50) is less than 1 nM.

In the case of `Cc1nnn(C)c1-c1cc2c(cc1F)c1ncc(C(C)(O)C3CC3)cc1n2[C@H](c1ccccc1F)C1CCOCC1` (single isomer, unassigned) [Example 23], the half-inhibitory concentration (IC50) is less than 5 nM.

Turning to `[2H]C([2H])([2H])c1nnn(C)c1-c1cc2c(cc1F)c1ncc(C(C)(C)O)cc1n2C(c1cc(OC)ccn1)C1CCOCC1` (single isomer, unassigned) [Example 51, 2-{8-fluoro-5-[(4-methoxypyridin-2-yl)(oxan-4-yl)methyl]-7-[4-(^2H3)methyl-1-methyl-1H-1,2,3-triazol-5-yl]-5H-pyrido[3,2-b]indol-3-yl}propan-2-ol], the concentration for half-maximal inhibition (IC50) is less than 1500 nM.

For the compound `[2H]C([2H])([2H])c1nnn(C)c1-c1cc2c(cc1F)c1ncc(C(C)(C)O)cc1n2C(c1cc(F)ccn1)C1CCOCC1` (racemic) [Example 60, 2-{8-fluoro-5-[(4-fluoropyridin-2-yl)(oxan-4-yl)methyl]-7-[4-(^2H3)methyl-1-methyl-1H-1,2,3-triazol-5-yl]-5H-pyrido[3,2-b]indol-3-yl}propan-2-ol], the 50% inhibitory concentration (IC50) is less than 5 nM.

For the compound `[2H]C([2H])([2H])c1nnn(C)c1-c1cc2c(cc1Cl)c1ncc(C(C)(C)O)cc1n2[C@H](c1ccccc1)C1CCOCC1` [Example 77, 2-{8-chloro-7-[4-(^2H3)methyl-1-methyl-1H-1,2,3-triazol-5-yl]-5-[(S)-oxan-4-yl(phenyl)methyl]-5H-pyrido[3,2-b]indol-3-yl}propan-2-ol], the IC50 is less than 1500 nM.

For `[2H]C([2H])([2H])c1nnn(C)c1-c1cc2c(cc1F)c1ncc(C(C)(C)O)cc1n2C(CCC)c1ccccn1` (single isomer, unassigned) [Example 48, 2-{8-fluoro-7-[4-(^2H3)methyl-1-methyl-1H-1,2,3-triazol-5-yl]-5-[1-(pyridin-2-yl)butyl]-5H-pyrido[3,2-b]indol-3-yl}propan-2-ol], the 50% inhibitory concentration (IC50) was less than 1500 nM.

For `[2H]C([2H])([2H])c1nnn(C)c1-c1cc2c(cc1F)c1ncc(C(C)(C)O)cc1n2[C@H](c1ccccc1F)C1CCOCC1` [Example 22, 2-{8-Fluoro-5-[(S)-(2-fluorophenyl)(oxan-4-yl)methyl]-7-[4-(^2H3)methyl-1-methyl-1H-1,2,3-triazol-5-yl]-5H-pyrido[3,2-b]indol-3-yl}propan-2-ol], the half-inhibitory concentration (IC50) was less than 1 nM.

On to `Cc1noc(C)c1-c1ccc2c3ncc(C(C)(C)O)cc3n([C@H](c3ccccc3)C3CCOCC3)c2c1` [Example 14, 2-[7-(Dimethyl-1,2-oxazol-4-yl)-5-[(S)-oxan-4-yl(phenyl)methyl]-5H-pyrido[3,2-b]indol-3-yl]propan-2-ol], for which the IC50 was less than 5 nM.

One may read the IC50 as the concentration needed to halve the response being measured.
